Here are results for six compounds from DBAASP.

Some test systems named below: Escherichia coli O157; Listeria monocytogenes; Salmonella typhimurium; Citrobacter freundii; Enterobacter cloacae; Enterococcus faecalis; Escherichia coli NDM-1; Klebsiella oxytoca; Morganella morganii; Bacillus subtilis 168; Escherichia coli BL21; Escherichia coli ESBL; Staphylococcus aureus; Escherichia coli E416-7.
What all share (experiment): ≥ marks a high value that may be exact or a test limit, other limits are often not marked, values filed in µg/mL are converted to µM
Experiment [1] concerns Bacillus amyloliquefaciens ATCC 23842.
Experiment [2] concerns Bacillus cereus ATCC 14579.
For experiment [3], the system named is Bacillus licheniformis ATCC 14580.
The subject of experiment [4] is Bacillus subtilis ATCC 6051.
The subject of experiment [5] is Enterococcus faecalis 1F-1.
Experiment [6] relates to Enterococcus faecium 5F-10.
Experiment [7] deals with Escherichia coli ATCC 25922.
Experiment [8] concerns Proteus mirabilis ATCC 35659.
Experiment [9] relates to Pseudomonas aeruginosa PAO1.
For experiment [10], the system named is Salmonella enterica ATCC H9812.
In experiment [11] the test system is Staphylococcus aureus ATCC 29213.
The subject of experiment [12] is Escherichia coli ATCC 25404.
Experiment [13] has as its system Micrococcus luteus ATCC 10420.
Experiment [14] relates to Staphylococcus aureus ATCC 25923.
Experiment [15] has as its system Staphylococcus epidermidis ATCC 9709.
The test system of experiment [16] is Acinetobacter baumannii ATCC 17978D-5.
For experiment [17], the system named is Enterococcus faecium ATCC 700221.
Experiment [18] deals with Klebsiella aerogenes ATCC 13048.
Experiment [19] deals with Pseudomonas aeruginosa ATCC 19660.
The subject of experiment [20] is Pseudomonas aeruginosa ATCC 27853.
In experiment [21] the test system is Staphylococcus aureus ATCC 33591.
Experiment [22] concerns Staphylococcus epidermidis ATCC 51625.
The test system of experiment [23] is Streptococcus pneumoniae ATCC 49619.
Experiment [24] concerns Bacillus subtilis ATCC 23857.
Experiment [25] concerns Klebsiella pneumoniae NDM-1.
Experiment [26] deals with Staphylococcus aureus ATCC 1717.
Experiment [27] concerns Enterococcus faecium V286-17.
In experiment [28] the test system is Klebsiella pneumoniae ATCC 13883.
Experiment [29] relates to Klebsiella pneumoniae E406-17.
For experiment [30], the system named is Pseudomonas aeruginosa E411-17.
The subject of experiment [31] is Staphylococcus aureus JE2.
Experiment [32] relates to Staphylococcus aureus M838-17.
For experiment [33], the system named is Staphylococcus aureus USA 300.

The term MIC denotes the lowest concentration that inhibits growth of the organism. Lower therefore signals inhibition by little substance.

≈ marks a conversion by molar mass, not a printed value. Where “and” joins values, the source holds several entries; their conditions need not be identical. Equal entries are not always repeated.

With `CC(C)C[C@H](NC(=O)[C@@H](N)CC(C)C)C(=O)N[C@@H](CO)C(=O)N[C@@H](CCCN=C(N)N)C(=O)N[C@H](C(=O)N[C@@H](CC(=O)O)C(=O)O)C(C)C` [LLSRVD], the MIC in [1], in [2], in [3], in [4], in [5] and in experiment [6] was not below 182 µM each time. The MIC is 91.2 µM (≈ 64 µg/mL) in experiment [7]; not below 182 µM in experiment [8]; more than 182 µM in experiment [9]; not below 182 µM in [10]; more than 182 µM in [11].
With `CC(C)C[C@H](NC(=O)[C@H](CC(C)C)NC(=O)[C@H](CCCCN)NC(=O)[C@H](CO)NC(=O)[C@H](CC(C)C)NC(=O)[C@H](C)NC(=O)[C@H](Cc1cnc[nH]1)NC(=O)[C@H](Cc1c[nH]c2ccccc12)NC(=O)[C@H](CC(C)C)NC(=O)[C@H](C)NC(=O)CNC(=O)[C@H](CC(C)C)NC(=O)[C@@H](N)Cc1ccccc1)C(=O)O` [FLGALWHALSKLL], the MIC is not below 64 µM in experiment [12]; not below 64 µM in the experiment with Escherichia coli O157; 8 µM (≈ 11.8 µg/mL) in the experiment on Listeria monocytogenes; 2 µM (≈ 2.94 µg/mL) in experiment [13]; not below 64 µM with Salmonella typhimurium; 8 µM (≈ 11.8 µg/mL) in experiment [14]. The MIC in experiment [15] is 4 µM (≈ 5.88 µg/mL).
`C[C@H](NC(=O)[C@H](Cc1ccccc1)NC(=O)[C@H](C)NC(=O)[C@H](Cc1ccccc1)NC(=O)[C@H](C)NC(=O)[C@H](Cc1ccccc1)NC(=O)[C@H](CCCCN)NC(=O)[C@H](CCCCN)NC(=O)[C@H](C)NC(=O)[C@H](Cc1ccccc1)NC(=O)[C@H](CCCCN)NC(=O)[C@H](CCCCN)NC(=O)[C@H](Cc1ccccc1)NC(=O)[C@H](CCCCN)NC(=O)[C@H](CCCCN)NC(=O)[C@H](C)NC(=O)[C@H](Cc1ccccc1)NC(=O)[C@H](CCCCN)NC(=O)[C@H](CCCCN)NC(=O)[C@H](C)NC(=O)[C@@H](N)Cc1ccccc1)C(=O)N[C@@H](Cc1ccccc1)C(=O)O` [FAKKFAKKFKKFAKKFAFAFAF]: the MIC was 12.1 µM (≈ 32 µg/mL) in experiment [16]; 12.1 µM (≈ 32 µg/mL) in experiment [17]; 12.1 µM (≈ 32 µg/mL) in experiment [18]; 12.1 µM (≈ 32 µg/mL) in experiment [19]; 12.1 µM (≈ 32 µg/mL) in experiment [20]; 24.2 µM (≈ 64 µg/mL) in experiment [21]. For the same compound, the MIC in [22] was 3.02 µM (≈ 8 µg/mL); in experiment [23] it was 6.04 µM (≈ 16 µg/mL).
As for `CC[C@H](C)[C@H](NC(=O)CNC(=O)[C@@H](NC(=O)[C@H](CCCCN)NC(=O)[C@H](C)NC(=O)[C@@H](NC(=O)[C@@H](NC(=O)CN)[C@@H](C)CC)[C@@H](C)CC)[C@@H](C)CC)C(=O)N[C@@H](CCCCN)C(=O)N[C@H](C(=O)N[C@@H](CCCCN)C(=O)N[C@@H](CCCCN)C(N)=O)[C@@H](C)CC` [GIIAKIGIKIKK], the MIC is 16 µM (≈ 20.5 µg/mL) in [24]; 22.6 µM (≈ 29 µg/mL) with Citrobacter freundii; 22.6 µM (≈ 29 µg/mL) in the experiment with Enterobacter cloacae; not below 128 µM in the experiment on Enterococcus faecalis; 32 µM (≈ 41 µg/mL) in experiment [7]; 16 µM (≈ 20.5 µg/mL) in the experiment on Escherichia coli NDM-1. The MIC against Klebsiella oxytoca is not below 64 µM; in [25], 22.6 µM (≈ 29 µg/mL); against Morganella morganii, not below 128 µM; in [26] it was not below 128 µM.
Regarding `CC[C@H](C)[C@H](NC(=O)CN)C(=O)N[C@H](C(=O)N[C@@H](CCCCN)C(=O)N[C@@H](CCCCN)C(=O)N[C@H](C(=O)N[C@H](C(=O)N[C@@H](CCCCN)C(=O)N[C@@H](CCCCN)C(=O)N[C@H](C(=O)N[C@H](C(=O)N[C@@H](CCCCN)C(=O)N[C@@H](CCCCN)C(N)=O)[C@@H](C)CC)[C@@H](C)CC)[C@@H](C)CC)[C@@H](C)CC)[C@@H](C)CC` [GIIKKIIKKIIKK], the MIC in the experiment on Bacillus subtilis 168 was 2.5 µM (≈ 3.81 µg/mL); in the experiment on Escherichia coli BL21 it was 20 µM (≈ 30.4 µg/mL); against Escherichia coli ESBL, 20 µM (≈ 30.4 µg/mL); with Staphylococcus aureus, 20 µM (≈ 30.4 µg/mL).
On to `CC(C)C[C@H](NC(=O)[C@H](CC(C)C)NC(=O)[C@H](CCCCN)NC(=O)[C@H](CC(C)C)NC(=O)CNC(=O)[C@H](CC(C)C)NC(=O)[C@H](CO)NC(=O)[C@H](CC(C)C)NC(=O)[C@H](CC(C)C)NC(=O)[C@H](CC(C)C)NC(=O)[C@H](CCCCN)NC(=O)[C@H](CC(C)C)NC(=O)CN)C(N)=O` [GLKLLLSLGLKLL], for which the MIC was 4.4 µM (≈ 6.07 µg/mL) in experiment [27]; more than 25 µM in experiment [7]; not below 50 µM with Escherichia coli E416-7; 25 µM (≈ 34.5 µg/mL) in [28]; not below 50 µM in experiment [29]; not below 50 µM in experiment [30]. For the same compound, the MIC in [9] is more than 25 µM; in experiment [31], 1.13 µM (≈ 1.56 µg/mL); in experiment [32], 2.25 µM (≈ 3.1 µg/mL); in [33], 1.6 µM and 3.1 µM and 4.4 µM.
